Laboratory results from EP1214933A1, “METHOD FOR MODULATING THE METABOLISM OF NITROGEN OXIDES, COMPOSITIONS THEREFOR (AND VARIANTS) AND METHOD FOR ACTING ON A PATIENT'S ORGANISM NECESSITATING THE METABOLISM OF NITROGEN OXIDES TO BE CORRECTED” (Institut Molekulyarnoi Genetiki Rossiiskoi Akademii Nauk ( …, priority 1999, dated 2001).

Columns and labels:
[1] = Efficacy of renitrosation catalysts by N1-nitrozotriptophan denitrosation kinetics; type: biochemical; conditions: 32°C, normalized for the buffer molarity
Experimental: The efficacy of renitrosation catalysts was determined by N^1-nitrozotriptophan (NOW) denitrosation kinetics in the composition of an acylic derivative or serum albumin at 32°C and at different pH values by absorption decrease at λ = 340 nm or by differential spectroscopy relative to denitrosation reaction in a buffer solution, in relation to nitrite/nitrate ratio or by the ratio analysis of nitrosation products. Examples 7-17 illustrate catalytic and inhibitory activity of W^0/W^0buffer compounds used in the claimed compositions (normalized for the buffer molarity).

NO oxidation in blood = experiment: In vivo micellar NO oxidation catalysis: arterial pressure and plasma nitrite/nitrate; parameters: species or system male rats of Wistar normotensive line; conditions: for nitrate increased by / nitrite level increased by: plasma, following NaNO2 injection
Experimental: The experiment was performed on male rats of Wistar normotensive line weighing 180-400 grams. Polyethylene catheters were implanted to animals under Ketamine anesthesia (5mg/100g intraperitoneally) 24 hours prior to the experiment. The femoral artery was catheterized for connecting to arterial blood pressure (AP) transducer and the femoral vein was catheterized for intravenous administering medicinal preparations. AP and heart rate (HR) were measured in the abdominal aorta using a pressure transducer connected to a computer through an amplifier and a digital converter. The animals were divided into groups each consisting of a control and a test subgroups. […] Monitoring AP and HR was continued for 1.5 hours after administering the solutions. Following recording initial AP level group one (group L-NAME) was intraperitonelly administered an inhibitor of NO-synthases N^ω-nitro-L-arginine methyl ester (50 mg/kg) and in 1.5 hours when AP stabilized at a steady level NaNO2 (1 mg/kg) was administered. After a steady lowering AP the animals were administered Perftoran or KH. Group two of rats (group FC) was administered Perftoran or KH immediately after recording initial AP level. Group three (group FCTh) was first administered 200 mg/kg α-lipoic acid and in 15 minutes it was administered Perftoran (or KH). Before commencement of each experiment, after AP got stabilized at a steady level while administering L-NAME and NaNO2 and also immediately following completion of monitoring 0.2 ml blood were taken in each experiment from the arterial catheter for analysis.

[2] = reference buffer Phosphate, pH 6.3
[3] = group L-NAME, experimental animals

Compound: O=P([O-])([O-])OP(=O)([O-])OP(=O)([O-])[O-].[Na+].[Na+].[Na+].[Na+].[Na+] [Example 7, Na5P3O10]
- W^0/W^0 buffer [1, 2]: 4

Compound: O=P([O-])([O-])OP(=O)([O-])OP(=O)([O-])[O-].[Mn+2].[Na+].[Na+].[Na+] [Example 9, Na3MnP3O10]
- W^0/W^0 buffer [1, 2]: 21

Compound: O=P([O-])([O-])OP(=O)([O-])OP(=O)([O-])[O-].[Mg+2].[Na+].[Na+].[Na+] [Example 10, Na3MgP3O10]
- W^0/W^0 buffer [1, 2]: 11

Compound: NC(N)=NCCCC(N)C(=O)O [Example 13, D-Arg]
- W^0/W^0 buffer ([1]; reference buffer MOPS, pH 6): 0.56

Compound: O=C1O[C@H]([C@@H](O)CO)C(O)=C1O [Example 17, Ascorbic acid]
- W^0/W^0 buffer ([1]; reference buffer Phosphate, pH 5.9): 32

Compound: COC(=O)[C@@H](N)CCCNC(=N)N[N+](=O)[O-] [L-NAME, N^ω-nitro-L-arginine methyl ester]
- Plasma levels of nitrites and nitrates (NO oxidation in blood; group L-NAME, after NOS inhibitor administration): insignificant lowering
- mean arterial blood pressure (MAP) raised by (NO oxidation in blood; group L-NAME, both subgroups, following L-NAME 50 mg/kg intraperitoneally): 38±5 mm Hg

Compound: O=N[O-].[Na+] [NaNO2]
- lowering MAP by (NO oxidation in blood; group L-NAME, both subgroups, NaNO2 1 mg/kg after L-NAME): 25±4 mm Hg
- nitrate increased by (NO oxidation in blood; group L-NAME, controls): 76 ± 26 µM
- nitrite level increased by (NO oxidation in blood; group L-NAME, controls): 362 ± 73 µM
- nitrate increased by (NO oxidation in blood; [3]): 87 ± 15 µM
- nitrite level increased by (NO oxidation in blood; [3]): 344 ± 68 µM

Compound: O=C(O)CCCCC1CCSS1 (stereo not drawn) [α-lipoic acid]
- MAP change (NO oxidation in blood; FCTh group, both subgroups, α-lipoic acid 200 mg/kg): insignificant lowering MAP

Compound: Na2MnATP [Example 8]
- W^0/W^0 buffer [1, 2]: 0.7
